Patent publication US8361510B2, “Nanogels for cellular delivery of therapeutics” (Georgia Tech Research Corporation, priority 2008, dated 2013)
Where no end group is shown, it is not given here.

System: EGFR
Experiment: EGFR expression by immunoblotting in Hey cells
Format: cell-based
Method: Immunoblotting. Hey cells were plated into 6-well plates (5×10^5/well) and allowed to adhere overnight at 37° C., 5% CO2. The cells were lysed with 100 μL of lysis buffer (50 mM Tris-HCl, pH 7.5, 150 mM NaCl, 2 mM EDTA (Fisher), 2 mM EGTA (Fisher), 1 mM sodium orthovanadate, 2.5 mM sodium pyrophosphate, 1 mM β-gycerolphosphate, 1 mM phenylmethanesulfonyl fluoride, 10 μg/mL aprotinin, 10 μg/mL leupeptin, 1% Triton X-100, and 5% glycerol), and the cell lysates sonicated four times for five seconds each. The lysates were cleared by centrifugation at 11,000×g rcf for […] at 4° C. Cell lysates were prepared for analysis by the addition of an equal volume of Laemmli 2× sample buffer. The samples were heated to 95° C. for […] to denature the proteins. The proteins were separated on a 10% SDS-PAGE gel and transferred onto nitrocellulose. The blots were blocked with either 5% nonfat dry milk (NFDM) or 5% bovine serum albumin (BSA) in 10 mM Tris-buffered saline, pH 7.5 plus 1% Tween 20 (TBST, BioRad) for 1 hour at room temperature. The blots were probed with anti-EGFR antibody (Cell Signaling, Danvers, Mass.; cat. no. 4405) or with a β-actin antibody (Millipore, Billerica, Mass.; Mab1501) diluted in 5% NFDM or 5% BSA overnight, with shaking at 4° C. For EphA2 detection, the blots were probed with an anti-EphA2 polyclonal antibody (Santa Cruz Biotechnology, Santa Cruz, Calif.; sc-294). The blots were washed three times with TBST and probed with goat anti-rabbit IgG (Santa Cruz, sc-2004) or with goat anti-mouse IgG (Santa Cruz, sc-2005) linked to horseradish peroxidase (HRP). Bands were visualized on film (Pierce) using the ECL reagent, SuperSignal West Pico™ (Pierce).
As described above, we chose siRNA targeting EGFR; knockdown of this receptor is non-lethal, but has clinical relevance in the treatment of drug resistant ovarian carcinomas. To determine if we could effectively knockdown EGFR in vitro, EGFR siRNA was encapsulated at a concentration of 16.6 μg of EGFR siRNA/mg of nanogels, using the loading technique described above. […]

How did the “EGFR expression relative to controls” value (Example 1, 4 h incubation, harvested at 48 hours, 1 mg nanogels/5×10^5 cells) turn out when “YSA-conjugated nanogels: core/shell pNIPMAm nanogels with YSA peptide coupled to shell amines via maleimide (EMCA) (YSAYPDSVPMMSC; also: coupled to nanogel shell amines via maleimide (EMCA))” was run?
The value was “small, statistically insignificant decrease”.

And the “EGFR expression of control treatments compared to untreated cells” value (Example 2)?
The value was “slight decrease”.
